# Source: US8053634B2, “Stabilization and blueing of anthocyanin pigments using gene encoding aromatic acyltransferase capable of transferring an aromatic acyl group to the 3′-position of anthocyanin” (Suntory Holdings Limited, priority 2004, dated 2011)
# Tests used:
# [1] = biological target: T1, recombinant acyltransferase derived from Gentiana triflora expressed in E. coli (Gentiana triflora, UniProt Q9ZWR8); assay: Measurement of activity of recombinant acyltransferase (HPLC analysis of reaction products); type: biochemical; conditions: for amount of product formed in time course of the reaction: 25-fold diluted enzyme, DEL 3G-5G-3′G 50, 100 or 200 μM as substrate, 2.5-20 minutes
# T1 construct: a fragment containing the coding region of the acyltransferase and the 3′-untranslated region was subcloned to the NcoI/HindIII site; made in house; host or cells: E. coli JM109 (pQE8, derived from pQE60)
# T1 sequence (Q9ZWR8 1-469): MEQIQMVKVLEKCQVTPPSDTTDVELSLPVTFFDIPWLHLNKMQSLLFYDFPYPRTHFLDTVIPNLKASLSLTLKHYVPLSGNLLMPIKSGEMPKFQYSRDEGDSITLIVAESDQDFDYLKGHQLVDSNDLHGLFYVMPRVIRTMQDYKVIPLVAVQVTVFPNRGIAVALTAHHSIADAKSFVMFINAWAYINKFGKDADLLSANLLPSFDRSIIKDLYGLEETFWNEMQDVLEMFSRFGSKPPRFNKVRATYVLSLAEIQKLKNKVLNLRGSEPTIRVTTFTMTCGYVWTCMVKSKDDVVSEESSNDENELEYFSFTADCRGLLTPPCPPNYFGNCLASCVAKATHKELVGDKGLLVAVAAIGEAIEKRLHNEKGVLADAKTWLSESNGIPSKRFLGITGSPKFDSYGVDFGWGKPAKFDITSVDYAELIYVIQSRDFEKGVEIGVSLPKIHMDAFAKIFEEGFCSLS
# Procedure: The enzymatic activity of the recombinant enzyme obtained in Example 1 was measured with 3 types of delphinidin derivatives (delphinidin 3,5,3′-triglucoside (DEL 3G-5G-3′G), delphinidin 3-glucosyl-5-caffeoylglucosyl-3′-glucoside (DEL 3G-5CafG-3′G), delphinidin 3-glucosyl-5-glucosyl-3′-caffeoylglucoside (DEL 3G-5G-3′CafG)) shown in FIG. 1 and FIG. 2 as substrates. The reaction mixture contained 100 mM potassium phosphate buffer (pH 8.5), 0.2 mM caffeoyl-CoA, […] each of the above substrates and 5 μl of the enzyme solution in a total volume of 50 μl, and the reaction was carried out at 30° C. for 15 minutes. An equal volume of 90% acetonitrile solution containing 0.1% trifluoroacetic acid (TFA) was added to the reaction mixture to stop the reaction.
# In order to analyze time course changes of reaction products, 5 μl of a 25-fold diluted enzyme solution and each of 50 μM, 100 μM or 200 μM of DEL 3G-5G-3′G were used as a substrate, and the reaction was stopped at 2.5, 5, 10, and 20 minutes later to analyze the products. The reaction products were analyzed with a reverse phase high performance liquid chromatography (HPLC) using a DE-41 column (4.6×250 mm, Shodex). Samples were eluted with an liner gradient of 20-50% of acetonitrile containing 0.5% TFA at 0.6 ml/min for 15 minutes, and then isoclatic elution at 0.6 ml/min for 10 minutes, and detected with SPD-M10A (SHIMAZU Corporation) at a wavelength of 250-600 nm. The HPLC elution time and absorption spectra of products were compared with those of authentic samples to identify the structure of products.
# [2] = Flower color simulation: purified pigment in juice squeezed from rose petals (cv. Medeo); type: physicochemical; conditions: Medeo squeezed juice (petal pH 4.38), diluted 4-fold; among five purified pigments
# Procedure: In order to simulate the flower color when the gene for gentian anthocyanin 5,3′-acyltransferase was introduced into roses and DEL 3G-5CafG-3′CafG was accumulated in rose petals, the color development of a purified pigment suspended in juice squeezed form rose petals (cv. Medeo) was measured. As for purified pigments, DEL 3G-5CafG-3′CafG, and as a comparative control, DEL 3G-5G, cyanidin 3,5-diglucoside (CYA 3G-5G), pelargonidin 3,5-diglucoside (PEL 3G-5G) and malvidin 3,5-diglucoside (MAL 3G-5G) were used. About 20 g of Medeo petals frozen at −80° C. for more than one hour were squeezed by a garlic squeezer for household use, and centrifuged at 1000 rpm for 1 minute to remove the debris of the petals, and the supernatant was prepared as the squeezed juice.
# Twenty μl of 50 mM DMSO solution of purified pigment was added to 1 ml of the squeezed juice, and kept for 10 minutes, and the absorption and transmittance spectra at 380-780 nm were measured with a spectrophotometer UV-2500PC(SHIMADZU Corporation). The transmittance spectrum values were converted into CIE L*a*b* color system (JISZ8729). […] However, since the absorbance for 3G-5CafG-3′CafG was too high, it was diluted 4-fold prior to measurement.
# [3] = among four delphinidin glucosides, cited from earlier work
# [4] = biological target: T2, aromatic acyltransferase purified from gentian petals (Gentiana triflora, UniProt Q9ZWR8); assay: Activity of aromatic acyltransferase purified from gentian petals (active fraction adsorbed to Dyematrix column Red); type: biochemical; conditions: as in Example 2
# T2 construct: an enzyme naturally occurring in gentian petals also has both activities; from tissue; host or cells: Gentiana petals
# T2 sequence (Q9ZWR8 1-469): T1 sequence (Q9ZWR8 1-469)
# Excerpt: The recombinant protein obtained by expressing a gentian cDNA of an aromatic acyltransferase in E. coli turned out to have an activity of transferring aromatic acyl groups to glucoses at the 5 and the 3′ position of a anthocyanin (Example 2). In order to confirm that an enzyme naturally occurring in gentian petals also has both activities of the 5-aromatic acyltransferase and the 3′-aromatic acyl transferase, this enzyme was purified from gentian petals. In a series of purification, as described in Example 2, each eluted fraction of column chromatography was measured for 5-aromatic acyltransferase activity with DEL 3G-5G as a substrate and for 3′-aromatic acyltransferase activity with DEL 3G-5G-3′G as a substrate.
# According to a report by Fujiwara et al. (Fujiwara et al., Eur. J. Biochem. 249: 45, 1997) in which a gentian 5-aromatic acyltransferase was purified, 40-70% ammonium sulfate-saturated fraction was obtained from extract of approximately 100 g of Gentiana petals. This fraction was dialyzed with Sephadex G-25 (Pharmacia) equilibrated with 20 mM Tris-HCl (pH 7.0) containing 10 μM p-aminophenylmethanesulfonyl fluoride (APMSF) and 1 mM DTT (hereinafter referred to as the Tris buffer), then it was loaded to MONO Q (Pharmacia) equilibrated with the Tris buffer. […]
# The active fractions were loaded to HiTrap Blue (Pharmacia) and extensively washed in the Tris buffer, and then the adsorbed fraction was eluted with a Tris buffer containing 0.9 M NaCl. […] When the eluted protein was subject to SDS-PAGE, only a single band was detected at molecular weight of 52 kDa which is an estimated molecular weight for an anthocyanin 5-acyltransferase.
# In a series of purifications, each eluted fraction of column chromatography was measured for the 5-aromatic acyltransferase activity with DEL 3G-5G as a substrate and for the 5,3′-aromatic acyltransferase activity with DEL 3G-5G-3′G as a substrate, and the fractions with the highest activity in both acyltransferase reactions were completely identical.
# [5] = biological target: T3, 5,3′-aromatic acyltransferase from Gentiana triflora expressed in nierembergia (Gentiana triflora, UniProt Q9ZWR8); assay: In vitro 5,3′-aromatic acyltransferase activity of crude enzyme from petals of nierembergia transformants; type: biochemical; conditions: in a manner similar to Example 2
# T3 construct: expressed in transfected cells; host or cells: petals of transgenic nierembergia (binary construct pSPB1536, 35S promoter)
# T3 sequence (Q9ZWR8 1-469): T1 sequence (Q9ZWR8 1-469)
# Excerpt: On the other hand, a crude enzyme was extracted from the petals of the transformants where transcription of all three genes were confirmed, in a manner as described in the report by Fujiwara et al. (Fujiwara et al., (1997) Eur. J. Biochem. 249: 45-51). […] On the other hand, when the crude enzyme from a non-recombinant nierembergia was used as the control, gentiodelphin was not detected.
# [6] = 250 mM substrate, 0.2 mM caffeoyl-CoA, pH 8.5, 30° C., 15 minutes, undiluted enzyme
Molecule,amount of product formed in time course of the reaction [1],maximum absorption spectrum (relative) [2],absorbance maximum (relative wavelength) [3],blueness (relative) [3],relative stability (fading) ([3]; aqueous solution of pH 6.5),"substrate converted to DEL 3G-5CafG-3′CafG [1, 6]","substrate converted to DEL 3G-5CafG-3′G (acyl group at the 5 position alone) [1, 6]","substrate converted to DEL 3G-5G-3′CafG (acyl group at the 3′ position alone) [1, 6]",reaction of the enzyme purified from gentian petals with the substrate [4],product formation from the substrate by crude enzyme of transgenic nierembergia [5]
"O=C(/C=C/c1ccc(O)c(O)c1)OC[C@H]1O[C@@H](Oc2cc(-c3[o+]c4cc(O)cc(O[C@@H]5O[C@H](COC(=O)/C=C/c6ccc(O)c(O)c6)[C@@H](O)[C@H](O)[C@H]5O)c4cc3O[C@@H]3O[C@H](CO)[C@@H](O)[C@H](O)[C@H]3O)cc(O)c2O)[C@H](O)[C@@H](O)[C@@H]1O [DEL 3G-5CafG-3′CafG, gentiodelphin]",increased according to the reaction time,largest maximum absorption spectrum,longest wavelength,most blueish,most stable and refractory to fading,–,–,–,–,–
"OC[C@H]1O[C@@H](Oc2cc3c(O[C@@H]4O[C@H](CO)[C@@H](O)[C@H](O)[C@H]4O)cc(O)cc3[o+]c2-c2cc(O)c(O)c(O[C@@H]3O[C@H](CO)[C@@H](O)[C@H](O)[C@H]3O)c2)[C@H](O)[C@@H](O)[C@@H]1O [DEL 3G-5G-3′G, delphinidin 3,5,3′-triglucoside]",–,–,–,–,–,58.7%,7.2%,≤ 1%,reacted,formation of gentiodelphin was confirmed
delphinidin 3-glucosyl-5-caffeoylglucosyl-3′-glucoside [DEL 3G-5CafG-3′G],increased according to the reaction time,–,–,–,–,94.1%,–,–,reacted,–
delphinidin 3-glucosyl-5-glucosyl-3′-caffeoylglucoside [DEL 3G-5G-3′CafG],barely detected,–,–,–,–,95.2%,–,–,reacted,–
